Experiment [1] is described as follows: Growth inhibition of human UACC62 cells at 10 uM after 48 hrs. It counts as functional. To be noted: UACC-62, 48 h, read-out: GI.
The test system of another experiment is Malme-3M. Briefly: Growth inhibition of human MALME-3M cells at 10 uM after 48 hrs. It counts as functional. To be noted: read-out: GI.
A further experiment relates to A498. Briefly: Growth inhibition of human A498 cells at 10 uM after 48 hrs. It counts as functional. As to conditions: A498, 48 h, read-out: GI.
The next experiment deals with Candida albicans. Briefly: Antimicrobial activity against Candida albicans assessed as inhibition zone at 200 ug/disk after 24 hrs by disc-diffusion method. To be noted: read-out: IZ. In kind it is functional. A general note: A growth-free zone around the sample is the usual read-out of agar diffusion tests.
The next experiment relates to Bacillus subtilis. Briefly: Antimicrobial activity against Bacillus subtilis assessed as inhibition zone at 200 ug/disk after 24 hrs by disc-diffusion method. It counts as functional. As to conditions: read-out: IZ.
Another experiment deals with HL-60(TB). Briefly: Growth inhibition of human HL-60(TB) cells at 10 uM after 48 hrs. In kind it is functional. As to conditions: HL-60, 48 h, read-out: GI.
Experiment [2] is described as follows: Growth inhibition of human MOLT4 cells at 10 uM after 48 hrs. To be noted: MOLT-4, 48 h, read-out: GI. It counts as functional.
In a further experiment the target is T1, Dihydrofolate reductase (Bos taurus, UniProt P00376).
T1 sequence (P00376 whole entry): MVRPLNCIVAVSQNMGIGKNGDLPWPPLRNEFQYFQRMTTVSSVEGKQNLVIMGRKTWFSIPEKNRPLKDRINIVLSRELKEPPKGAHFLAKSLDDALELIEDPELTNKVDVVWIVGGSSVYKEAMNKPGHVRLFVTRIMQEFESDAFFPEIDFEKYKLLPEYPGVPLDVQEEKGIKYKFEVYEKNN
Briefly: Inhibition of bovine liver DHFR.

Experiment [3] can be described thus: Growth inhibition of human SF295 cells at 10 uM after 48 hrs. In kind it is functional. As to conditions: SF-295, 48 h, read-out: GI.
A short description of experiment [4]: (§1) Growth inhibition of human UO31 cells at 10 uM after 48 hrs. In kind it is functional. As to conditions: UO-31, 48 h, read-out: GI.
A further experiment deals with K562. Briefly: Growth inhibition of human K562 cells at 10 uM after 48 hrs. In kind it is functional. As to conditions: K562, 48 h, read-out: GI.
Experiment [5] is described as follows: Growth inhibition of human RPMI8226 cells at 10 uM after 48 hrs. To be noted: RPMI-8226, 48 h, read-out: GI. In kind it is functional.
A further experiment deals with Staphylococcus aureus. Briefly: Antimicrobial activity against Staphylococcus aureus assessed as inhibition zone at 200 ug/disk after 24 hrs by disc-diffusion method. It counts as functional. As to conditions: read-out: IZ.
For the next experiment, the system named is NCI-H23. Briefly: Growth inhibition of human NCI-H23 cells at 10 uM after 48 hrs. It counts as functional. To be noted: NCI-H23, 48 h, read-out: GI.
For another experiment, the system named is Escherichia coli. Briefly: Antimicrobial activity against Escherichia coli assessed as inhibition zone at 200 ug/disk after 24 hrs by disc-diffusion method. In kind it is functional. As to conditions: read-out: IZ.
Experiment [6] can be described thus: Growth inhibition of human PC3 cells at 10 uM after 48 hrs. To be noted: PC-3, 48 h, read-out: GI. In kind it is functional.
The next experiment relates to Pseudomonas aeruginosa. Briefly: Antimicrobial activity against Pseudomonas aeruginosa assessed as inhibition zone at 200 ug/disk after 24 hrs by disc-diffusion method. It counts as functional. As to conditions: read-out: IZ.
Experiment [7] is described as follows: Growth inhibition of human HOP92 cells at 10 uM after 48 hrs. In kind it is functional. To be noted: HOP-92, 48 h, read-out: GI.
For a further experiment, the system named is SR. Briefly: Growth inhibition of human SR cells at 10 uM after 48 hrs. In kind it is functional. As to conditions: read-out: GI.
A short description of experiment [8]: Growth inhibition of human HCT15 cells at 10 uM after 48 hrs. In kind it is functional. To be noted: HCT-15, 48 h, read-out: GI.
A further experiment has as its system NCI-H226. Briefly: Growth inhibition of human NCI-H226 cells at 10 uM after 48 hrs. To be noted: NCI-H226, 48 h, read-out: GI. It counts as functional.
For another experiment, the system named is MDA-MB-468. Briefly: Growth inhibition of human MDA-MB-468 cells at 10 uM after 48 hrs. It counts as functional. To be noted: MDA-MB-468, 48 h, read-out: GI.
Another experiment deals with NCI-H522. Briefly: Growth inhibition of human NCI-H522 cells at 10 uM after 48 hrs. It counts as functional.
Experiment [9] is described as follows: Growth inhibition of human HCT116 cells at 10 uM after 48 hrs. In kind it is functional. As to conditions: HCT-116, 48 h, read-out: GI.
A short description of experiment [10]: Growth inhibition of human RXF393 cells at 10 uM after 48 hrs. In kind it is functional. As to conditions: RXF 393, 48 h, read-out: GI.
The next experiment concerns MCF7. Briefly: Growth inhibition of human MCF7 cells at 10 uM after 48 hrs. In kind it is functional. To be noted: MCF7, 48 h, read-out: GI.
The subject of another experiment is UO-31. The experiment is described as §1. In kind it is functional.
Another experiment relates to A549. Briefly: Growth inhibition of human A549 cells at 10 uM after 48 hrs. In kind it is functional. As to conditions: A549, 48 h, read-out: GI.
Experiment [11] can be described thus: Growth inhibition of human OVCAR4 cells at 10 uM after 48 hrs. It counts as functional. As to conditions: OVCAR-4, 48 h, read-out: GI.
A further experiment concerns CCRF-CEM. Briefly: Growth inhibition of human CCRF-CEM cells at 10 uM after 48 hrs. As to conditions: read-out: GI. It counts as functional.
The next experiment has as its system SK-MEL-5. Briefly: Growth inhibition of human SK-MEL-5 cells at 10 uM after 48 hrs. In kind it is functional. To be noted: SK-MEL-5, 48 h, read-out: GI.
The test system of another experiment is KM12. Briefly: Growth inhibition of human KM12 cells at 10 uM after 48 hrs. In kind it is functional. As to conditions: KM12, 48 h, read-out: GI.
A further experiment has as its system HT-29. Briefly: Growth inhibition of human HT-29 cells at 10 uM after 48 hrs. It counts as functional. As to conditions: HT-29, 48 h, read-out: GI.
A further experiment relates to T47D. Briefly: Growth inhibition of human T47D cells at 10 uM after 48 hrs. In kind it is functional. As to conditions: read-out: GI.
The subject of another experiment is CAKI-1. Briefly: Growth inhibition of human CAKI-1 cells at 10 uM after 48 hrs. In kind it is functional. To be noted: CAKI-1, 48 h, read-out: GI.

As a reminder, the IC50 is the concentration that inhibits the measured activity by half.

Each structure is given as a SMILES string. Activity calls are given as the source filed them. The calls are words filed in the database; no cut-off is given here.

In the case of `Nc1nnc(Sc2nc3ccc(Cl)cc3c(=O)n2Cc2ccccc2)s1`, the inhibition of growth at 10 µM in experiment [1] stood at 17.5%; with Malme-3M it was 19.2%; in the experiment on A498 it was 25.9%; in the experiment with HL-60(TB), 24.3%; in experiment [2] it was 16.8%; in [3], 13.5%. Also, the inhibition of growth at 10 µM in experiment [4] is 27.2%; with K562 it was 24.8%; in experiment [5] it was 17.3%; in the experiment with NCI-H23, 10.3%; in [6] it was 12.8%. The zone of inhibition at 200 µg/disc in the experiment on Candida albicans stood at 8 mm; in the experiment on Bacillus subtilis it was 8 mm; in the experiment on Staphylococcus aureus, 8 mm; with Escherichia coli, 12 mm; in the experiment on Pseudomonas aeruginosa, 8 mm. This molecule displayed an IC50 at Dihydrofolate reductase of 8 µM.
Take `COc1cc2nc(Sc3nnc(N)s3)n(Cc3ccccc3)c(=O)c2cc1OC`: the inhibition of growth at 10 µM with A498 was 18.7%; in [7], 26.7%; in experiment [2], 18.5%; in [3], 11.4%; in [4], 21.5%; in the experiment on SR, 13.4%. Also, the zone of inhibition at 200 µg/disc was determined as 8 mm in the experiment with Candida albicans; 14 mm in the experiment on Bacillus subtilis; 8 mm in the experiment with Staphylococcus aureus; 8 mm in the experiment with Escherichia coli; 8 mm with Pseudomonas aeruginosa. The molecule also gave an IC50 against Dihydrofolate reductase of 6 µM.
On to `COc1cc2nc(Sc3nnc(N)s3)n(-c3ccc(Oc4ccccc4)cc3)c(=O)c2cc1OC`, for which the inhibition of growth at 10 µM is 22.1% in experiment [1]; 19.3% in the experiment with A498; 21.4% in experiment [8]; 13.4% with NCI-H226; 22.6% in the experiment with MDA-MB-468; 11.2% in the experiment on HL-60(TB). Moreover, the inhibition of growth at 10 µM in experiment [9] was found to be 11.5%; in [2], 29.6%; in experiment [10] it was 10.7%; in the experiment with MCF7 it was 14.8%; in the experiment on A549 it was 15.2%; in experiment [11], 34.6%. The inhibition of growth at 10 µM was found to be 57.3% with SR; 22.5% in the experiment with K562; 43.7% in experiment [5]; 11.2% in the experiment on CCRF-CEM; 28.2% in the experiment with SK-MEL-5; 20.7% with KM12. The values for the inhibition of growth at 10 µM (in [6]; in the experiment with HT-29; in the experiment with T47D) were 23.2%, 17.6% and 38.4%, respectively. The zone of inhibition at 200 µg/disc in the experiment on Candida albicans, in the experiment with Bacillus subtilis, in the experiment on Staphylococcus aureus, in the experiment with Escherichia coli and in the experiment on Pseudomonas aeruginosa was 8 mm in each case. Also, the “growth inhibition (GI)” value in the experiment with NCI-H522 and in the experiment on UO-31 was “inactive” in each case. Moreover, half-maximal inhibition against Dihydrofolate reductase (IC50) required 0.6 µM.
Turning to `COc1ccc(-n2c(Sc3nnc(N)s3)nc3ccc(Cl)cc3c2=O)cc1`, the inhibition of growth at 10 µM with A498 was found to be 36.4%; in experiment [7], 42.1%; in the experiment with NCI-H226 it was 13.4%; in [2], 12%; in the experiment on MCF7 it was 13.2%; in experiment [3], 11%. The inhibition of growth at 10 µM in experiment [4] worked out at 21.1%; with SR, 19.1%; in the experiment with T47D, 12%. Moreover, the zone of inhibition at 200 µg/disc in the experiment with Candida albicans, in the experiment on Bacillus subtilis, with Staphylococcus aureus, with Escherichia coli and with Pseudomonas aeruginosa was 8 mm in each case. This molecule displayed an IC50 on Dihydrofolate reductase of 0.8 µM.
Take `COc1ccc(-n2c(Sc3sc(N)nc3C)nc3ccc(Cl)cc3c2=O)cc1`: the inhibition of growth at 10 µM in [1] amounted to 12.6%; with A498 it was 24.3%; with CAKI-1, 13.1%; in experiment [7] it was 24.9%; in the experiment on NCI-H226, 11.8%; in the experiment on NCI-H522 (NCI-H522, 48 h, read-out: GI), 10.5%. Also, the inhibition of growth at 10 µM in [10] came to 13.4%; with MCF7, 11.5%; in experiment [3], 27.6%; in [4] it was 35.5%; in [11], 13.8%; with SR, 13.5%. The inhibition of growth at 10 µM is 14.3% in the experiment on K562, 14.6% in [5] and 14.7% in [6]. The zone of inhibition at 200 µg/disc in the experiment with Candida albicans, in the experiment on Bacillus subtilis, in the experiment with Staphylococcus aureus, with Escherichia coli and in the experiment on Pseudomonas aeruginosa was 8 mm throughout. This molecule also showed an IC50 against Dihydrofolate reductase of 8 µM.
With `Nc1nnc(Sc2nc3ccc(Cl)cc3c(=O)n2-c2ccccc2)s1`, the inhibition of growth at 10 µM in experiment [7] worked out at 28.6%; with HL-60(TB) it was 21.5%; in the experiment with MCF7, 16.4%; in experiment [5], 19.1%; with T47D it was 21.4%. Also, the zone of inhibition at 200 µg/disc in the experiment with Candida albicans, with Bacillus subtilis, with Staphylococcus aureus, in the experiment with Escherichia coli and in the experiment on Pseudomonas aeruginosa was 8 mm each time. For the same molecule, 6 µM corresponded to half-maximal inhibition against Dihydrofolate reductase (IC50).

Values taken from ChEMBL document CHEMBL3352542, “Synthesis, biological evaluation and molecular modeling study of 2-(1,3,4-thiadiazolyl-thio and 4-methyl-thiazolyl-thio)-quinazolin-4-ones as a new class of DHFR inhibitors” (Bioorg Med Chem Lett, 2014).
